Target: CRBN/DDB1 (Homo sapiens (Human), UniProt Q96SW2)
Format: binding
Settings: His tagged CRBN+DDB-DLS7+CXU4, Cy5-labeled Thalidomide probe, one hour incubation; read-out: CRBN HTRF IC50
Method: The binding potency was determined using H-TRF assay technology (Perkin Elmer). Compounds were serially diluted in DMSO and 0.2 μL volume was transferred to white 384-well plate.

CRBN/DDB1, sequence (Q96SW2 whole entry): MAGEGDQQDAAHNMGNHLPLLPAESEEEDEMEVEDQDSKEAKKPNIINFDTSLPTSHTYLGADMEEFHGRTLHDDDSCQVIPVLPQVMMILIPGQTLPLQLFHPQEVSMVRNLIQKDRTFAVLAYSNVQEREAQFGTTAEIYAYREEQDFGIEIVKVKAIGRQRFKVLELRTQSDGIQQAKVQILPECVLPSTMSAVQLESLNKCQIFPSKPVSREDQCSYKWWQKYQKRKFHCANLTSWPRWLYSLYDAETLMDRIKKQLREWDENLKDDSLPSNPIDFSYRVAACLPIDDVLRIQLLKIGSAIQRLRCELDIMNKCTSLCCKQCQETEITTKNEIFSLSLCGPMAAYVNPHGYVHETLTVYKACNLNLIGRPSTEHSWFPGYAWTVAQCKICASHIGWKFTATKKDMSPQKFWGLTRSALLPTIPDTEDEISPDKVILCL
CRBN/DDB1, sequence (Q16531 whole entry partner): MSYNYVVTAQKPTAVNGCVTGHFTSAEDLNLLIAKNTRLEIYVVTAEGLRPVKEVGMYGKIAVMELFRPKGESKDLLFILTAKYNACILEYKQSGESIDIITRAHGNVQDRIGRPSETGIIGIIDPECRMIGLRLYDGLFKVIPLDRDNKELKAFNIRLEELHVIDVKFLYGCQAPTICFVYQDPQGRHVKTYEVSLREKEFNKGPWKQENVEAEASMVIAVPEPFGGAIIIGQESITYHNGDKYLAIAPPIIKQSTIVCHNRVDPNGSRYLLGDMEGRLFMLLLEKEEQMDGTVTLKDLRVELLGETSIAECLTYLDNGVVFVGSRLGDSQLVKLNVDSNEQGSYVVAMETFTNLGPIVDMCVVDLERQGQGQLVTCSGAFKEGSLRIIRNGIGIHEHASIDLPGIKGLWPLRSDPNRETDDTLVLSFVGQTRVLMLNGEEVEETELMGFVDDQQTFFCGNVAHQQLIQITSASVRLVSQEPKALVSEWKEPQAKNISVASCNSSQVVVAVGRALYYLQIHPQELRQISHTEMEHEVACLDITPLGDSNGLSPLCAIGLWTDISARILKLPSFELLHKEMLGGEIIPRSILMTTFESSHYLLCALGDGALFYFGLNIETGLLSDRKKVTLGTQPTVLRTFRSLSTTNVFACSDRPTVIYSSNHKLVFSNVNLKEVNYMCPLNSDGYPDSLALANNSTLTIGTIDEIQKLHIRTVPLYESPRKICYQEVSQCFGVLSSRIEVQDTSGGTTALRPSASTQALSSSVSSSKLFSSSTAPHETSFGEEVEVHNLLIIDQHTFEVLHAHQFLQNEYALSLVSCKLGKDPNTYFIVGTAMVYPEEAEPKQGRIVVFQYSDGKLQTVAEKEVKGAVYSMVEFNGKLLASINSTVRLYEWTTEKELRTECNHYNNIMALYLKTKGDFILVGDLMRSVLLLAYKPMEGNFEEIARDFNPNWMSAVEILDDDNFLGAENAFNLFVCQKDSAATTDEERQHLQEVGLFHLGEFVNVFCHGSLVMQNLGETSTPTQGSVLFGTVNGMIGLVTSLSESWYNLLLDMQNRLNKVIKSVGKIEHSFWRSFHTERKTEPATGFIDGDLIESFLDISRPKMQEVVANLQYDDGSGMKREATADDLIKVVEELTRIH

Question: Which IC50 does the source give for `C[C@@H]1Cc2c([nH]c3ccccc23)[C@@H](c2cnc(N3C[C@@H]4[C@H](CN5CCN6c7cc8c(cc7OC[C@@H]6C5)C(=O)N([C@H]5CCC(=O)NC5=O)C8)[C@@H]4C3)nc2)N1CC(C)(C)F` [Compound A13, (S)-3-((S)-3-(((1R,5S,6R)-3-(5-((1R,3R)-2-(2-fluoro-2-methylpropyl)-3-methyl-2,3,4,9-tetrahydro-1H-pyrido[3,4-b]indol-1-yl)pyrimidin-2-yl)-3-azabicyclo[3.1.0]hexan-6-yl)methyl)-8-oxo-1,2,3,4,4a,5,8,10-octahydro-9H-pyrazino[1′,2′:4,5][1,4]oxazino[2,3-f]isoindol-9-yl)piperidine-2,6-dione] here?
Answer: 50 to 500 nM

Question: How did the IC50 turn out when `COc1ccc(C(=O)N2CCC(CN3CCN(c4ncc([C@@H]5c6[nH]c7ccccc7c6C[C@@H](C)N5CC(F)F)cn4)CC3)CC2)cc1N1CCC(=O)NC1=O` [Compound A7, 1-(5-(4-((4-(5-((1R,3R)-2-(2,2-difluoroethyl)-3-methyl-2,3,4,9-tetrahydro-1H-pyrido[3,4-b]indol-1-yl)pyrimidin-2-yl)piperazin-1-yl)methyl)piperidine-1-carbonyl)-2-methoxyphenyl) dihydropyrimidine-2,4(1H,3H)-dione] was run?
Answer: 500 to 5000 nM

Question: Which IC50 does the source give for `CS(=O)(=O)N1CCc2c([nH]c3ccccc23)[C@@H]1c1c(F)cc(N2CCC3(CCN(C(=O)CN4Cc5cc6c(cc5C4)C(=O)N(C4CCC(=O)NC4=O)C6=O)CC3)CC2)cc1F` (stereo partly drawn) [Compound A20, 6-(2-(9-(3,5-difluoro-4-((S)-2-(methylsulfonyl)-2,3,4,9-tetrahydro-1H-pyrido[3,4-b]indol-1-yl)phenyl)-3,9-diazaspiro[5.5]undecan-3-yl)-2-oxoethyl)-2-(2,6-dioxopiperidin-3-yl)-6,7-dihydropyrrolo[3,4-f]isoindole-1,3(2H,5H)-dione] here?
Answer: > 5000 nM

Question: With `C[C@@H]1Cc2c([nH]c3ccccc23)[C@@H](c2cnc(N3CC[C@@H](CN4CCN5c6ccc7c(c6OC[C@@H]5C4)CN(C4CCC(=O)NC4=O)C7=O)C3)nc2)N1CC(F)F` (stereo partly drawn) [Compound A14, 3-((S)-7-(((S)-1-(5-((1R,3R)-2-(2,2-difluoroethyl)-3-methyl-2,3,4,9-tetrahydro-1H-pyrido[3,4-b]indol-1-yl)pyrimidin-2-yl)pyrrolidin-3-yl)methyl)-1-oxo-1,3,5,5a,6,7,8,9-octahydro-2H-pyrazino[1′,2′:4,5][1,4]oxazino[2,3-e]isoindol-2-yl)piperidine-2,6-dione] as the compound, how does the IC50 read?
Answer: < 50 nM

Question: For `C[C@@H]1Cc2c([nH]c3ccccc23)[C@@H](c2cnc(OC3CC(C(=O)N4CCC(N5Cc6cc7c(cc6C5)C(=O)N(C5CCC(=O)NC5=O)C7=O)CC4)C3)nc2)N1CC(F)F` (stereo partly drawn) [Compound A18, 6-(1-((1R,3r)-3-((5-((1R,3R)-2-(2,2-difluoroethyl)-3-methyl-2,3,4,9-tetrahydro-1H-pyrido[3,4-b]indol-1-yl)pyrimidin-2-yl)oxy)cyclobutane-1-carbonyl)piperidin-4-yl)-2-(2,6-dioxopiperidin-3-yl)-6,7-dihydropyrrolo[3,4-f]isoindole-1,3(2H,5H)-dione], which IC50 is on record?
Answer: 50 to 500 nM

Question: Which IC50 does the source give for `CS(=O)(=O)N1CCc2c([nH]c3ccccc23)[C@H]1c1c(F)cc(N2CCC(CN3CCN4c5cc6c(cc5OC[C@@H]4C3)C(=O)N([C@H]3CCC(=O)NC3=O)C6)CC2)cc1F` [Compound A17, (S)-3-((S)-3-((1-(3,5-difluoro-4-((R)-2-(methylsulfonyl)-2,3,4,9-tetrahydro-1H-pyrido[3,4-b]indol-1-yl)phenyl)piperidin-4-yl)methyl)-8-oxo-1,2,3,4,4a,5,8,10-octahydro-9H-pyrazino[1′,2′:4,5][1,4]oxazino[2,3-f]isoindol-9-yl)piperidine-2,6-dione] here?
Answer: > 5000 nM

Question: Which IC50 does the source give for `C[C@@H]1Cc2c([nH]c3ccccc23)[C@@H](c2cnc(N3CCC4(CC3)CC(CN3CCN(c5ccc(NC6CCC(=O)NC6=O)cc5F)CC3)C4)nc2)N1CC(F)F` (stereo partly drawn) [Compound A16, 3-((4-(4-((7-(5-((1R,3R)-2-(2,2-difluoroethyl)-3-methyl-2,3,4,9-tetrahydro-1H-pyrido[3,4-b]indol-1-yl)pyrimidin-2-yl)-7-azaspiro[3.5]nonan-2-yl)methyl)piperazin-1-yl)-3-fluorophenyl)amino)piperidine-2,6-dione] here?
Answer: 50 to 500 nM

Question: How did the IC50 turn out when `C[C@@H]1Cc2c([nH]c3ccccc23)[C@@H](c2cnc(N3CCC(N4CCN(c5ccc(NC6CCC(=O)NC6=O)cc5F)CC4)CC3)nc2)N1CC(F)F` (stereo partly drawn) [Compound A1, 3-((4-(4-(1-(5-((1R,3R)-2-(2,2-difluoroethyl)-3-methyl-2,3,4,9-tetrahydro-1H-pyrido[3,4-b]indol-1-yl)pyrimidin-2-yl)piperidin-4-yl)piperazin-1-yl)-3-fluorophenyl)amino)piperidine-2,6-dione] was run?
Answer: 500 to 5000 nM

Question: How did the IC50 turn out when `C[C@@H]1Cc2c([nH]c3ccccc23)[C@@H](c2cnc(N3CCC4(CC3)CC(CN3CCC5(CC3)COc3cc6c(cc35)CN(C3CCC(=O)NC3=O)C6=O)C4)nc2)N1CC(F)F` (stereo partly drawn) [Compound A26, 3-(1′-((7-(5-((1R,3R)-2-(2,2-difluoroethyl)-3-methyl-2,3,4,9-tetrahydro-1H-pyrido[3,4-b]indol-1-yl)pyrimidin-2-yl)-7-azaspiro[3.5]nonan-2-yl)methyl)-7-oxo-5,7-dihydro-2H,6H-spiro[furo[2,3-f]isoindole-3,4′-piperidin]-6-yl)piperidine-2,6-dione] was run?
Answer: 500 to 5000 nM

Question: How did the IC50 turn out when `CS(=O)(=O)N1CCc2c([nH]c3ccccc23)[C@H]1c1c(F)cc(N2CCC3(CCN(C(=O)CN4Cc5cc6c(cc5C4)C(=O)N(C4CCC(=O)NC4=O)C6=O)CC3)CC2)cc1F` (stereo partly drawn) [Compound A8, 6-(2-(9-(3,5-difluoro-4-((R)-2-(methylsulfonyl)-2,3,4,9-tetrahydro-1H-pyrido[3,4-b]indol-1-yl)phenyl)-3,9-diazaspiro[5.5]undecan-3-yl)-2-oxoethyl)-2-(2,6-dioxopiperidin-3-yl)-6,7-dihydropyrrolo[3,4-f]isoindole-1,3(2H,5H)-dione] was run?
Answer: > 5000 nM

Question: For `CS(=O)(=O)N1CCc2c([nH]c3ccccc23)[C@H]1c1c(F)cc(N2CCC3(CCN(C(=O)CN4Cc5cc6c(cc5C4)C(=O)N(C4CCC(=O)NC4=O)C6=O)CC3)CC2)cc1F` (stereo partly drawn) [Compound A21, 6-(2-(9-(3,5-difluoro-4-((R)-2-(methylsulfonyl)-2,3,4,9-tetrahydro-1H-pyrido[3,4-b]indol-1-yl)phenyl)-3,9-diazaspiro[5.5]undecan-3-yl)-2-oxoethyl)-2-(2,6-dioxopiperidin-3-yl)-6,7-dihydropyrrolo[3,4-f]isoindole-1,3(2H,5H)-dione], which IC50 is on record?
Answer: > 5000 nM

Question: How did the IC50 turn out when `Cc1nn(C2CCC(=O)NC2=O)c2ccc(N3CCN(CC4CC5(CCN(c6ncc([C@@H]7c8[nH]c9ccccc9c8C[C@@H](C)N7CC(C)(C)F)cn6)CC5)C4)CC3)cc12` (stereo partly drawn) [Compound A15, 3-(5-(4-((7-(5-((1R,3R)-2-(2-fluoro-2-methylpropyl)-3-methyl-2,3,4,9-tetrahydro-1H-pyrido[3,4-b]indol-1-yl)pyrimidin-2-yl)-7-azaspiro[3.5]nonan-2-yl)methyl)piperazin-1-yl)-3-methyl-1H-indazol-1-yl)piperidine-2,6-dione] was run?
Answer: < 50 nM

Question: With `C[C@@H]1Cc2c([nH]c3ccccc23)[C@@H](c2cnc(N3CCC4(CC3)CC(CN3CCN5c6ccc7c(c6OC[C@@H]5C3)CN(C3CCC(=O)NC3=O)C7=O)C4)nc2)N1CC(F)F` (stereo partly drawn) [Compound A6, 3-((S)-7-((7-(5-((1R,3R)-2-(2,2-difluoroethyl)-3-methyl-2,3,4,9-tetrahydro-1H-pyrido[3,4-b]indol-1-yl)pyrimidin-2-yl)-7-azaspiro[3.5]nonan-2-yl)methyl)-1-oxo-1,3,5,5a,6,7,8,9-octahydro-2H-pyrazino[1′,2′:4,5][1,4]oxazino[2,3-e]isoindol-2-yl)piperidine-2,6-dione] as the compound, how does the IC50 read?
Answer: < 50 nM

Question: Which IC50 does the source give for `C[C@@H]1Cc2c([nH]c3ccccc23)[C@@H](c2cnc(N3CCC(N4CCC(c5ccc(NC6CCC(=O)NC6=O)cc5F)CC4)CC3)nc2)N1CC(F)F` (stereo partly drawn) [Compound A3, 3-((4-(1′-(5-((1R,3R)-2-(2,2-difluoroethyl)-3-methyl-2,3,4,9-tetrahydro-1H-pyrido[3,4-b]indol-1-yl)pyrimidin-2-yl)-[1,4′-bipiperidin]-4-yl)-3-fluorophenyl)amino)piperidine-2,6-dione] here?
Answer: 50 to 500 nM

Question: How did the IC50 turn out when `C[C@@H]1Cc2c([nH]c3ccccc23)[C@@H](c2cnc(N3C[C@@H]4[C@@H](CN5CCN6c7cc8c(cc7OC[C@@H]6C5)C(=O)N(C5CCC(=O)NC5=O)C8)[C@@H]4C3)nc2)N1CC(F)F` (stereo partly drawn) [Compound A4, (S)-3-((S)-3-(((1R,5S,6S)-3-(5-((1R,3R)-2-(2,2-difluoroethyl)-3-methyl-2,3,4,9-tetrahydro-1H-pyrido[3,4-b]indol-1-yl)pyrimidin-2-yl)-3-azabicyclo[3.1.0]hexan-6-yl)methyl)-8-oxo-1,2,3,4,4a,5,8,10-octahydro-9H-pyrazino[1′,2′:4,5][1,4]oxazino[2,3-f]isoindol-9-yl)piperidine-2,6-dione] was run?
Answer: 500 to 5000 nM

Reference: patent publication US20260007681A1, “INDOLE DERIVATIVES AS ESTROGEN RECEPTOR DEGRADERS” (REGENTS OF THE UNIVERSITY OF MICHIGAN, priority 2022, published 2026)
